# Laboratory results: ChEMBL document CHEMBL1201862, “PubChem BioAssay data set” (2004)
# Activity calls are given as the source filed them.
# Tests used:
# [1] = tested on: Vero; test: mammalian cell viability reduction – secondary assay, cytotoxicity control for West Nile virus antiviral project, dose response (AID 1650); assay type: functional; conditions: Chlorocebus sabaeus
# [2] = molecular target: T1, G-protein coupled receptor 55 (Homo sapiens, UniProt Q9Y2T6); test: blockers of GPR55 signalling, imaged – imaging, image-based, counter-screen for GPR35 antagonist project, SAR follow-up (AID 2397); assay type: functional
# [3] = molecular target: T2, Replicative DNA helicase DnaB (Mycobacterium tuberculosis, UniProt P9WMR3); test: DnaB intein splicing inhibitors, dose response, biochemical, cell-free fluorescence (AID 449749); assay type: functional
# T2 sequence (P9WMR3 whole entry): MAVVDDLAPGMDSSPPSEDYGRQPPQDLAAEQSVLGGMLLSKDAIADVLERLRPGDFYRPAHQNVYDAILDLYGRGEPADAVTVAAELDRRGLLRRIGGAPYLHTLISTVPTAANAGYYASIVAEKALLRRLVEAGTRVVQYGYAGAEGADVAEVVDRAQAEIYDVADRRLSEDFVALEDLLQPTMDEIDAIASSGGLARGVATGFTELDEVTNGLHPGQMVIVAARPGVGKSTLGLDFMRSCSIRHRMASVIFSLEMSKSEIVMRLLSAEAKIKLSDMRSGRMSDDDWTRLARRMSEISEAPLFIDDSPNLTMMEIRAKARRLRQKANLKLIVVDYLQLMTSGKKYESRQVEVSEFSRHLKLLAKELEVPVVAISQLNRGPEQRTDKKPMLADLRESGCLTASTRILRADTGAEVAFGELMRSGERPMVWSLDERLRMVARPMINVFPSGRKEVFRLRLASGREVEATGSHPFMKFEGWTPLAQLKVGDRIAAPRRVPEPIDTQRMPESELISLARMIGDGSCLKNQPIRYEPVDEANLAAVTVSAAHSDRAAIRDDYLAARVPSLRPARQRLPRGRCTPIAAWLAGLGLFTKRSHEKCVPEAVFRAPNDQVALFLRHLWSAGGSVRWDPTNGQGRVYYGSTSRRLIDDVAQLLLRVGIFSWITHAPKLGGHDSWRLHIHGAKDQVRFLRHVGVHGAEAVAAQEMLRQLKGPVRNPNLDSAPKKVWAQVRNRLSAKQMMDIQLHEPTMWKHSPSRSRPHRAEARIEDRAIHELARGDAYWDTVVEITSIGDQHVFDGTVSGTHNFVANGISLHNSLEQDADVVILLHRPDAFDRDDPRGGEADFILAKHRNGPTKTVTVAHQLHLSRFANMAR
# [4] = molecular target: T3, Protein RecA (Mycobacterium tuberculosis, UniProt P9WHJ3); test: Fluorescence Cell-Free Homogeneous Dose Retest to Identify Inhibitors of RecA-Intein Splicing Activity. [Related pubchem assays (depositor defined):AID2097, AID2223, AID489010, AID492950]; assay type: functional
# T3 sequence (P9WHJ3 whole entry): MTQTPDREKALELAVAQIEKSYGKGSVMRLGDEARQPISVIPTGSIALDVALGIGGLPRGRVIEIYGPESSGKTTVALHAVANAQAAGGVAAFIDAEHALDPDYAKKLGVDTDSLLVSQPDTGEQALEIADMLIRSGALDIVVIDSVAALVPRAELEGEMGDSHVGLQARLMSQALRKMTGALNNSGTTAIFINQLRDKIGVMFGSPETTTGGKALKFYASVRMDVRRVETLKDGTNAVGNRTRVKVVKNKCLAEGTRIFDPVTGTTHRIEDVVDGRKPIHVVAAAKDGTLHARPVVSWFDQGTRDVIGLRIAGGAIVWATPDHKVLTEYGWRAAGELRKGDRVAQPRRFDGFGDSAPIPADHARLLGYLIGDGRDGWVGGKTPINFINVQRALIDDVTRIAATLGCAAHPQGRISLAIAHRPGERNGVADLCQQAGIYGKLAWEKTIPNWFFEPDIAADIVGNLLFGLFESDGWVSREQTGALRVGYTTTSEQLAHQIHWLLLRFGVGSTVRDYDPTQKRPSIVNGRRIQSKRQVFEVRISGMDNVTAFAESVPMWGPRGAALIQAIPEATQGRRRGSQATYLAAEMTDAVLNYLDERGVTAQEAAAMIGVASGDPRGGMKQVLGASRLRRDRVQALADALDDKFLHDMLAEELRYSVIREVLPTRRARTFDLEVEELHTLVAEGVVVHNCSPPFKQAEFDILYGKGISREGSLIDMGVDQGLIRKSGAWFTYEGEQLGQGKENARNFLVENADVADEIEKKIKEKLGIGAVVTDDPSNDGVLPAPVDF
# [5] = molecular target: T1, G-protein coupled receptor 55; test: selective activators of receptor GPR55 – imaging, U2OS cells, beta-arrestin-GFP redistribution, primary screen (AID 1961); assay type: functional
# [6] = molecular target: T4, Cannabinoid receptor 2 (Homo sapiens, UniProt P34972); test: SAR analysis of antagonists of the Cannabinoid Receptor 2 using an Image-Based Assay - Set 2. [Related pubchem assays (depositor defined):AID1961, AID1965]; assay type: functional
# [7] = molecular target: T4, Cannabinoid receptor 2; test: SAR analysis of agonists of the Cannabinoid Receptor 2 using an Image-Based Assay - Set 2. [Related pubchem assays (depositor defined):AID1961, AID1965]; assay type: functional
# [8] = molecular target: T1, G-protein coupled receptor 55; test: SAR analysis of selective Agonists of GPR55 using an Image-Based Assay. [Related pubchem assays (depositor defined):AID1961, AID1965]; assay type: functional
# [9] = molecular target: Cannabinoid receptor 1 (Homo sapiens, UniProt P21554); test: SAR analysis of antagonists of the Cannabinoid Receptor 1 using an Image-Based Assay. [Related pubchem assays (depositor defined):AID1961, AID1965]; assay type: functional
# [10] = molecular target: Glyceraldehyde-3-phosphate dehydrogenase (Homo sapiens, UniProt P04406)
# [11] = molecular target: T5, Bcl-2-related protein A1 (Mus musculus, UniProt Q07440); test: small-molecule antagonists of Bfl-1/BH3 interaction – biochemical, TR-FRET, mouse Bfl-1, confirmation (AID 621);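 also: TR-FRET binding of GST-Bfl-1 to FITC-labelled Bid peptide via terbium antibody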
# T5 sequence (Q07440 whole entry): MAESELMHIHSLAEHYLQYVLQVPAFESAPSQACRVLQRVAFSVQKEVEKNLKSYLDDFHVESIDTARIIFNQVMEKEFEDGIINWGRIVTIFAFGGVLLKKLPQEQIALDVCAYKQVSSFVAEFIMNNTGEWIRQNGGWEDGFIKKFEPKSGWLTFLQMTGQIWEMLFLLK
# [12] = molecular target: T5, Bcl-2-related protein A1; test: Bfl-1 binding inhibitors, SAR follow-up, biochemical, fluorescence polarization (AID 1070)
# [13] = molecular target: Nucleotide-binding oligomerization domain-containing protein 1 (Homo sapiens, UniProt Q9Y239); test: SAR analysis of compounds that inhibit NOD1 - Set 3. [Related pubchem assays (depositor defined):AID1566, AID1575, AID1578, AID1849, AID1852, AID2333, AID2335, AID2466]; assay type: functional
# [14] = molecular target: Tumor necrosis factor (Homo sapiens, UniProt P01375); test: analog potency on TNFa NF-kB signaling – cell-based, set 3, SAR follow-up (AID 2801); assay type: functional
# [15] = tested on: HEK293; test: SAR analysis of compounds that are cytotoxic to HEK293 - Set 3. [Related pubchem assays (depositor defined):AID1575, AID1578, AID1848, AID1849, AID2001, AID2333, AID2334, AID2335, AID2337, AID2469]; assay type: functional, cell-based; conditions: Homo sapiens
# [16] = molecular target: Nucleotide-binding oligomerization domain-containing protein 2 (Homo sapiens, UniProt Q9HC29); test: inhibition of MDP-driven NOD2 NF-kB reporter – cell-based, set 3, SAR follow-up (AID 2799); assay type: functional
# [17] = molecular target: Intestinal-type alkaline phosphatase (Homo sapiens, UniProt P09923); test: activation of human intestinal alkaline phosphatase – biochemical, dose response (AID 488873); assay type: functional
# [18] = molecular target: Intestinal-type alkaline phosphatase (Mus musculus, UniProt P24822); test: mouse intestinal alkaline phosphatase activators, dose response, biochemical, luminescence, uHTS hits (AID 488783); assay type: functional
# [19] = molecular target: T6, Alkaline phosphatase, tissue-nonspecific isozyme (Homo sapiens, UniProt P05186); test: activation of tissue-nonspecific alkaline phosphatase – biochemical, TNAP isozyme, mouse IAP uHTS hits, selectivity assay for mouse IAP activator project, dose response (AID 488880); assay type: functional
# T6 sequence (P05186 whole entry): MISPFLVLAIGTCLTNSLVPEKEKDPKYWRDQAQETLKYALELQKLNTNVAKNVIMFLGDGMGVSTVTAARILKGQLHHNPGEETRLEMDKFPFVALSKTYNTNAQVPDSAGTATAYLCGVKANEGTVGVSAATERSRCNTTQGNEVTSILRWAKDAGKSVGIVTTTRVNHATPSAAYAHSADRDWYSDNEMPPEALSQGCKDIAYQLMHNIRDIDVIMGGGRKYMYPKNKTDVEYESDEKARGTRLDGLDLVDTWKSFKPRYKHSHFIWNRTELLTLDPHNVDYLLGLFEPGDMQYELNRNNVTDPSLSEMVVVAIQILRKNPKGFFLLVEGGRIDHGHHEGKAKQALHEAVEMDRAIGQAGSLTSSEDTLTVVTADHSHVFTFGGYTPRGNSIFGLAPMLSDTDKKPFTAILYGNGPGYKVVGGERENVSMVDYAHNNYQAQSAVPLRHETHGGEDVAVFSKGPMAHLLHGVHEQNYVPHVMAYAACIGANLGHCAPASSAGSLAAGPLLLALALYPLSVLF
# [20] = molecular target: 26S proteasome non-ATPase regulatory subunit 14 (Homo sapiens, UniProt O00487); test: inhibition of proteasome subunit RPN11 – biochemical, fluorescence polarization, uHTS hits, confirmation (AID 602368); assay type: functional
# [21] = molecular target: 72 kDa type IV collagenase (Homo sapiens, UniProt P08253); test: Dose Response validation of uHTS RPN11 inhibitor hits using a MMP-2 Fluorescence assay.; assay type: functional
# [22] = molecular target: Prothrombin (Bos taurus, UniProt P00735); test: thrombin protease inhibitors – biochemical, fluorescence polarization, uHTS hits, dose response (AID 602369); assay type: functional
# [23] = Luminescence Cell-Based Dose Retest to Confirm Inhibitors of Cancer Stem Cells. [Related pubchem assays (depositor defined):AID2717, AID2721]; assay type: functional; conditions: Homo sapiens
# [24] = Late stage assay provider results from the probe development effort to identify inhibitors of Protein Phosphatase Methylesterase 1 (PME-1): luminescence-based biochemical dose response assay to determine cytotoxicity of inhibitor compounds. [Related pubchem assays (depositor defined):AID2130, AID2143, AID2171, AID2174, AID2177, AID2232, AID2233, AID2291, AID2363, AID2365, AID2366, AID2368, AID2369, AID2371, AID463124, AID463130, AID463131, AID463132, AID463146, AID463149] Panel member name: Fetal Calf Serum; assay type: toxicity
# [25] = Late stage assay provider results from the probe development effort to identify inhibitors of Protein Phosphatase Methylesterase 1 (PME-1): luminescence-based […] dose response assay to determine cytotoxicity of inhibitor compounds. [Related pubchem assays (depositor defined):AID2130, AID2143, AID2171, AID2174, AID2177, AID2232, AID2233, AID2291, AID2363, AID2365, AID2366, AID2368, AID2369, AID2371, AID463124, AID463130, AID463131, AID463132, AID463146, AID463149] Panel member name: Serum-free Media; assay type: toxicity
# [26] = A549 cell cytotoxicity, dose response, cytotoxicity control, plate reader, cherry-pick, antagonist series (AID 743412); assay type: functional, cell-based
# [27] = toxicity toward HepG2 liver cells – cell-based, plate reader, cherry-pick, antagonist series, cytotoxicity control, dose response (AID 743416); assay type: functional
# [28] = blockers of bursicon-stimulated LGR2 cAMP reporter – cell-based, HEK293, CRE-luciferase reporter, cherry pick, set 2, dose response (AID 743343); assay type: functional;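 also: transfected cells were stimulated with diluted bursicon conditioned medium after compound addition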
# [29] = blockade of melanocortin 4 receptor signaling – cell-based, plate reader, cherry pick, counter-screen for LGR2 antagonist project, dose response (AID 743444); assay type: functional;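 also: transfected HEK 293 cells stimulated with alpha-MSH peptide; potency of inhibitors of the alpha-MSH evoked signal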
# [30] = viability loss in HEK293 cells – cell-based, plate reader, cherry-picked samples, cytotoxicity control, dose response (AID 743446); assay type: functional
# [31] = molecular target: Voltage-dependent T-type calcium channel subunit alpha-1H (Homo sapiens, UniProt O95180); test: inhibition of CACNA1H calcium flux – cell-based, SynthLib3 library, HEK293 Cav3.2, fluorescence (AID 493041); assay type: functional
# T1 sequence (Q9Y2T6 whole entry): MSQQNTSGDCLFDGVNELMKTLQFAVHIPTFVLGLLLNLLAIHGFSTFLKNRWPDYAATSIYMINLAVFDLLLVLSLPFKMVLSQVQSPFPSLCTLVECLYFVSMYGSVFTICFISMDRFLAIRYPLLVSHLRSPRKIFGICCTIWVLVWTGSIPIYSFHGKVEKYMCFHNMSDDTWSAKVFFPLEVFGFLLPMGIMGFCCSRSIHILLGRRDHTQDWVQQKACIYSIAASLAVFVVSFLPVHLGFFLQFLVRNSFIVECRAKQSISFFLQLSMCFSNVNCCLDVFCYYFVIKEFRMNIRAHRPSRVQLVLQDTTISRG
# T4 sequence (P34972 whole entry): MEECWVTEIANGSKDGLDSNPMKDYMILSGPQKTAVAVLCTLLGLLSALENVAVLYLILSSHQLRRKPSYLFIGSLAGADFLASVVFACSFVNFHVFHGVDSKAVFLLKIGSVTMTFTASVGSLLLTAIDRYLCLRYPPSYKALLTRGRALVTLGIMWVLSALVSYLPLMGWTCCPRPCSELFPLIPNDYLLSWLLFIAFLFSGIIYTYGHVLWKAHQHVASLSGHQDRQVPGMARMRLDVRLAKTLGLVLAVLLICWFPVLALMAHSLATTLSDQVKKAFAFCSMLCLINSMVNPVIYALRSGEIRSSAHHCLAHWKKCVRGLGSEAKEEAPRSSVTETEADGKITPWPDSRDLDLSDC
# Sequence of Nucleotide-binding oligomerization domain-containing protein 2 (Q9HC29 whole entry, the tested form may be a part): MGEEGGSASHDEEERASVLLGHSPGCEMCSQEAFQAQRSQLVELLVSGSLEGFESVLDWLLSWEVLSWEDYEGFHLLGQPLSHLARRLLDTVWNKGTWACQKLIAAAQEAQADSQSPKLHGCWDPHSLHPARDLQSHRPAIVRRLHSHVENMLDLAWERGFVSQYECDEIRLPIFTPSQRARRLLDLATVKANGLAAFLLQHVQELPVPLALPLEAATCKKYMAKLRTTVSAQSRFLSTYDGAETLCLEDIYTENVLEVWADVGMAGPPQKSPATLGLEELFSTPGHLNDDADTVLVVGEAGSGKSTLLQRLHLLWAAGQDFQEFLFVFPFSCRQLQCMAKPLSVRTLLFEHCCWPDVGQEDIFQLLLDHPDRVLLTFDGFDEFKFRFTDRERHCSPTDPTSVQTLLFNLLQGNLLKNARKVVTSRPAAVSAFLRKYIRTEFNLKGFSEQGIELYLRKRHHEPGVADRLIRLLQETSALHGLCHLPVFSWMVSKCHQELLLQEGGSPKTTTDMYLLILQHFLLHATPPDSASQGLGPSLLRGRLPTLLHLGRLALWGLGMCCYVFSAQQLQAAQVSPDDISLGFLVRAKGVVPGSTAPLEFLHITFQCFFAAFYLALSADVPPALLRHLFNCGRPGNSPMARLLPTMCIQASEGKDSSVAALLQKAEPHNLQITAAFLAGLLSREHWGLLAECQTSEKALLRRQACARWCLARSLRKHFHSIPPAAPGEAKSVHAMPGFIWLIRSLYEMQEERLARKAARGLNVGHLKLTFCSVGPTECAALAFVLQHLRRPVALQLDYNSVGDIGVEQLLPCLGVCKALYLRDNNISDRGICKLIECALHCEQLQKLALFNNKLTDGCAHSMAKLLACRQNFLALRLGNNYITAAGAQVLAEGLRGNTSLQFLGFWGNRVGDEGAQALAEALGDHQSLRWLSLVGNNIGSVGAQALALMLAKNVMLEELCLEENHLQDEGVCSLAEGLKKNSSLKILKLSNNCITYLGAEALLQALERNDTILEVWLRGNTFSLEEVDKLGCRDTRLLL
# Sequence of Cannabinoid receptor 1 (P21554 whole entry): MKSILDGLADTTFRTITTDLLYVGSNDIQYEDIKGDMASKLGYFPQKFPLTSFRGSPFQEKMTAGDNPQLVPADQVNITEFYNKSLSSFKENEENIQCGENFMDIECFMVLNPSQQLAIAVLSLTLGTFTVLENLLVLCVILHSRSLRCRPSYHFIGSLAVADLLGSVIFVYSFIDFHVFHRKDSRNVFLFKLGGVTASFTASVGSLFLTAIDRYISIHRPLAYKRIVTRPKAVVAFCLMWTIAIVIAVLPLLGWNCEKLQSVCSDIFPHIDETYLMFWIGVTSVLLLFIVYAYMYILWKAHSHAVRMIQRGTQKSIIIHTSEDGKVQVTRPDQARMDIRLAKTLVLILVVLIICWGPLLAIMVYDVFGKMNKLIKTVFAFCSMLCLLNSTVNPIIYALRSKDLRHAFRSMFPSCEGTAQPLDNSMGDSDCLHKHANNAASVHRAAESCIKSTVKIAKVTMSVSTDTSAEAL
# Sequence of Intestinal-type alkaline phosphatase (Mus musculus, UniProt P24822) (P24822 whole entry): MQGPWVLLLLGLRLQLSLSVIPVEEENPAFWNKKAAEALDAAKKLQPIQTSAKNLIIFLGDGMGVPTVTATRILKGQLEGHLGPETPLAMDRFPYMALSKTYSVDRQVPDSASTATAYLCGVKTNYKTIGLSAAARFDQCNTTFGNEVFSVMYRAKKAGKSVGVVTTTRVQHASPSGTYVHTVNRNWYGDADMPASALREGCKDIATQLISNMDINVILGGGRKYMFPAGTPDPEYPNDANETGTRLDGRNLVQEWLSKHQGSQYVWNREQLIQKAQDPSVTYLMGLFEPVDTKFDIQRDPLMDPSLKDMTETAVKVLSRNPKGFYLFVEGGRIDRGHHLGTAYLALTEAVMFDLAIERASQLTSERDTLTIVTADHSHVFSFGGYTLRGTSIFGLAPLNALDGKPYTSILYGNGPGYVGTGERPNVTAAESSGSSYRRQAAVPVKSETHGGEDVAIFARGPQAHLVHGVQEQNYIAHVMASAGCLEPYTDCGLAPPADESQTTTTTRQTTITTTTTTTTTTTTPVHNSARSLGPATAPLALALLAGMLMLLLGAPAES
# Sequence of Tumor necrosis factor (P01375 whole entry): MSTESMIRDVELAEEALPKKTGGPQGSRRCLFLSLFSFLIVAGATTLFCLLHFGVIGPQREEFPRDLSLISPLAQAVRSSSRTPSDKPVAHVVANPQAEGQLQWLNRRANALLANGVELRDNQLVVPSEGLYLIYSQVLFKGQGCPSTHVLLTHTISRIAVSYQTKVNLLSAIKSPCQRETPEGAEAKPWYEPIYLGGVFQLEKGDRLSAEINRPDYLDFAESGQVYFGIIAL
# Sequence of 72 kDa type IV collagenase (P08253 whole entry): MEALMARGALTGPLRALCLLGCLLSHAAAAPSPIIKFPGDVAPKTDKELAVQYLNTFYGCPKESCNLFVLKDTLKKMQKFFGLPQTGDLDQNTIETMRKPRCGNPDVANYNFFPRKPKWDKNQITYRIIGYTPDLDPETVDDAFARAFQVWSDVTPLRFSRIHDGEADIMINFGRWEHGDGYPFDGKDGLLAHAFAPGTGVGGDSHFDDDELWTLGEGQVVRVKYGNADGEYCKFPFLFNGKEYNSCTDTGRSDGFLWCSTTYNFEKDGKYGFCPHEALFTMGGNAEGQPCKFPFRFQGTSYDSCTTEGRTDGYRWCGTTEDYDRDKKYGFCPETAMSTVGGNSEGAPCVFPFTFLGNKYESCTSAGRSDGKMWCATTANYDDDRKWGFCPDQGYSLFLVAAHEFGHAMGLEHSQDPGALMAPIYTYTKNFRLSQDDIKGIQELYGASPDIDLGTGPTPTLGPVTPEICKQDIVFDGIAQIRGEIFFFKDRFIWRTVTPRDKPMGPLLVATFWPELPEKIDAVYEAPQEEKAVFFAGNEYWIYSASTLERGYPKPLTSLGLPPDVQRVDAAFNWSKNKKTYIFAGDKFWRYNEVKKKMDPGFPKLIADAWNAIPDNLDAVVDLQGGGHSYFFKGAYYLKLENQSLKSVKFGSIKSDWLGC
# Sequence of 26S proteasome non-ATPase regulatory subunit 14 (O00487 whole entry): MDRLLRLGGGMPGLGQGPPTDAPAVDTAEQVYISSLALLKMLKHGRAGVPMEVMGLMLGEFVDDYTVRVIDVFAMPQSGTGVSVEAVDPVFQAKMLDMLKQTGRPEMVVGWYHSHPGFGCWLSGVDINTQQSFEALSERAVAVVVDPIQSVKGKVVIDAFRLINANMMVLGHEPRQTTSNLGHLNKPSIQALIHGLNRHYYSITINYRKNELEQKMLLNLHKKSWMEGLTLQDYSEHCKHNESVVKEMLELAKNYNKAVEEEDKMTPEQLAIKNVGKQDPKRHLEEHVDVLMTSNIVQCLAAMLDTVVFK
# Sequence of Intestinal-type alkaline phosphatase (Homo sapiens, UniProt P09923) (P09923 whole entry): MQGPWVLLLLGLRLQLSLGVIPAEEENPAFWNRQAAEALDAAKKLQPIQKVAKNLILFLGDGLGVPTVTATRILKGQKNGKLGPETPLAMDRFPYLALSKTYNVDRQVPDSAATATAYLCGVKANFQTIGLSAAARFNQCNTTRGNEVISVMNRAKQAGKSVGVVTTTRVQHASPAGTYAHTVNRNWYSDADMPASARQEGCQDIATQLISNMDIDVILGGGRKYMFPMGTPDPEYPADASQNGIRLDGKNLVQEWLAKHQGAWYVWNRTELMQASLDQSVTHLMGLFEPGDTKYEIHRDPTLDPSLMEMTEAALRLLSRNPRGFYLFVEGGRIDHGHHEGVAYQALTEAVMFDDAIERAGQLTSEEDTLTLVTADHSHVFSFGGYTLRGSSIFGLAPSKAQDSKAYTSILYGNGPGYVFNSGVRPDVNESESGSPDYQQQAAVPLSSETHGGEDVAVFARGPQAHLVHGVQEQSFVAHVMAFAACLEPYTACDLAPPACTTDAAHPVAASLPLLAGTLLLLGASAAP
# Sequence of Glyceraldehyde-3-phosphate dehydrogenase (P04406 whole entry): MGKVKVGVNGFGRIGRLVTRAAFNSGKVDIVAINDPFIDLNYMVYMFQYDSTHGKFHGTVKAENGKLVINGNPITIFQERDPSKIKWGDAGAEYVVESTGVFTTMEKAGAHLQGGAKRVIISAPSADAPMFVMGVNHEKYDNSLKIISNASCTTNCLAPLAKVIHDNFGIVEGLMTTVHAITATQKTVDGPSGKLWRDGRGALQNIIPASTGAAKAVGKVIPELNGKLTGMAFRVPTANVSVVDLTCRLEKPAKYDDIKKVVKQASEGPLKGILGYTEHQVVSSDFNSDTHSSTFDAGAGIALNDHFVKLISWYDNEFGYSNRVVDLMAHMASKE
smiles,measurement,setting,value
O=C(CCCN1C(=O)/C(=C/c2ccccc2)SC1=S)Nc1ccc(O)cc1,CC50,[1],60 µM (active)
same,IC50,[2],> 32 µM (inactive)
same,AC50,[3],12 µM (active)
same,EC50,[4],> 380 µM (inactive)
CC(Sc1nc2cc(Cl)ccc2s1)C(=O)Nc1cccc(S(=O)(=O)N2CCOCC2)c1 (stereo not drawn),EC50,[5],0.961 µM (active)
same,IC50,[6],> 32 µM (inactive)
same,EC50,[7],> 32 µM (inactive)
same,EC50,[8],0.761 µM (active)
same,IC50,[9],> 32 µM (inactive)
COc1ccc(-c2cc(N)n(S(=O)(=O)c3ccc(F)cc3)n2)cc1OC,IC50,[10],> 100 µM (not active)
same,IC50,[11],> 100 µM (not active)
same,IC50,[12],> 100 µM (not active)
same,IC50,[13],> 20 µM (inactive)
same,IC50,[14],> 20 µM (inactive)
same,IC50,[15],> 20 µM (inactive)
same,IC50,[16],> 20 µM (inactive)
CN(CCO)c1ccc(C=NNc2ccc([N+](=O)[O-])cc2S(=O)(=O)Nc2ccccc2C(=O)O)cc1,EC50,[17],26.6 µM (active)
same,EC50,[18],17.5 µM (active)
same,EC50,[19],19.7 µM (active)
same,IC50,[20],37 µM (active)
same,IC50,[21],> 100 µM (inactive)
same,IC50,[22],36.4 µM (active)
CCOC(=O)N1C(=O)[C@@](c2ccc(Cl)cc2)(C(C)C)N1C(=O)OCC,AC50,[23],3.99 µM (active)
same,CC50,[24],> 10 µM (inactive)
same,CC50,[25],> 10 µM (inactive)
same,AC50,[3],7.28 µM (active)
same,EC50,[4],16.2 µM (active)
same,AC50,[26],22.4 µM (active)
same,AC50,[27],40.9 µM (active)
same,AC50,[28],17.3 µM (active)
same,AC50,[29],26.6 µM (active)
same,AC50,[30],49.1 µM (active)
CC(C)CCc1nnc(NC(=O)COc2ccc(F)cc2Cl)o1,EC50,[31],10 µM (active)
